Test results reported in US9849170B2, “Microneedle coating composition and microneedle device” (priority 2013, dated 2017).

Assay: Blending effect of lysine hydrochloride on stability (L9 orthogonal table)
Format: physicochemical
Settings: 2.5% or 5.0% lysine hydrochloride blended; 50° C., 2 weeks; least-squares analysis, FIG. 4
Method: A Japanese encephalitis vaccine antigen application solution comprising 70% by mass of a mixture of arginine and an acid, where the blending ratio of each component (unit: % by mass) and the molar ratio of arginine and the acid are shown in Table 7, was applied onto microneedles, and the blending effect of the lysine hydrochloride was evaluated using an L9 orthogonal table. In Table 7, the numerical values in parentheses for each component denote the blending ratios (unit: % by mass) after removal of the volatile component.
A PBS solution of a Japanese encephalitis vaccine antigen was used as a bulk drug, this bulk drug was concentrated by ultrafiltration, and a predetermined amount of an additive was added to the concentrate, followed by mixing to obtain an application solution for microneedles. […] After drying, the microneedles were sealed in MoistCatch (trade name, Kyodo Printing Co., Ltd.) together with PharmaKeep (trade name, Mitsubishi Gas Chemical Company, Inc.), and the stability under each temperature condition was evaluated. […] For the specific activity level of each sample preserved at 50° C. for 2 weeks, the degree of influence by blending of lysine hydrochloride on the specific activity was analyzed by a least-squares method. […]

SMILES: Cl.NCCCC[C@H](N)C(=O)O [lysine hydrochloride]
- degree of influence on the specific activity: high
